This assay has as its target T1, CrkII^NSH3 (Homo sapiens, UniProt P46108).
T1 construct: CrkII^NSH3; UniProt P46108-1, residues 134–191; 8-His tag with TEV protease cleavage site (N); made in house; host or cells: E. coli C41 (DE3)
Kind of assay: SPR, PEAK PRM and tandem peptides binding to immobilised CrkII NSH3 domain. The note with it: peptide analyte over amine-coupled CrkII NSH3 (CM5); Biacore S200, HBS-TP pH 7.4, 20 °C; steady-state 1:1 fit; mean ± S.E.M. (N ≥ 3) or SD (N = 2); read-out: SPR KD, CrkII N-SH3. The protocol: SPR binding studies of PEAK PRM peptides to CrkII^NSH3 were performed using a Biacore S200 Instrument (Cytiva). Purified CrkII^NSH3 was diluted to 5 µg ml^−1 in 10 mM sodium acetate pH 4.0 and amine coupled at 25 °C to a Series S CM5 sensor chip, in HBS-N running buffer (20 mM HEPES pH 7.4, 150 mM NaCl) to a final immobilization level of 1100–1400 response units (RU), followed by surface deactivation using 1 M ethanolamine. A blank activation/deactivation was used for the reference surface. Peptide binding studies were performed at 20 °C in HBS-TP running buffer (20 mM HEPES pH 7.4, 150 mM NaCl, 1 mM TCEP, 0.005% (v/v) Tween-P20). […] Peptide stocks were further diluted to in running buffer to 10 or 20 µM and prepared as a 11-point concentration series (2-fold serial dilution, […] for PEAK PRM peptides, or 20 µM–20 nM for PEAK tandem motif peptides). Samples were injected in a multi-cycle run (flow rate 30 µl min^−1, contact time of 60 s, dissociation 120 s) without regeneration. Sensorgrams were double referenced, and steady-state binding data fitted using a 1:1 binding model using Biacore S200 Evaluation Software (Cytiva, v. 1.1).

Molecules are shown by their SMILES.

T1 sequence (P46108 134-191): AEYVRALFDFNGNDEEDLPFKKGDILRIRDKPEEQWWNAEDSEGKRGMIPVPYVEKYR

Broadly, the Kd is a measure of binding affinity in units of concentration. In the case of `CC[C@H](C)[C@H](NC(=O)[C@H](CCCCN)NC(=O)[C@H](CCCCN)NC(=O)[C@@H]1CCCN1C(=O)[C@H](CC(C)C)NC(=O)[C@@H]1CCCN1C(=O)[C@@H]1CCCN1C(=O)[C@@H]1CCCN1C(=O)[C@H](CC(C)C)NC(=O)[C@@H]1CCCN1C(C)=O)C(=O)N[C@@H](CC(C)C)C(=O)N[C@H](C(=O)N[C@@H](CCCNC(=N)N)C(=O)N[C@H](C(=O)N[C@@H](CCC(N)=O)C(=O)N[C@@H](CO)C(=O)N[C@@H](CC(C)C)C(=O)N1CCC[C@H]1C(=O)N[C@H](C(=O)N[C@@H](CCCNC(=N)N)C(=O)N[C@@H](CCCNC(=N)N)C(N)=O)[C@@H](C)O)[C@@H](C)O)[C@@H](C)O` (single isomer, unassigned) [PEAK3^tandem], the Kd is 600 ± 20 nM.

The values above are taken from publication PMC10279719 (Nature Communications, 2023).
